Active and inactive are the calls of the source. How the calls were made is not given here.
Tested on: CCRIS mutagenicity, Ames/micronucleus/aberration tests
Assay: CCRIS mutagenicity studies

In the case of `ClC(Cl)Cl`, the mutagenic call (Test System: AMES SALMONELLA TYPHIMURIUM, Strain/Indicator: RSJ100, Metabolic Activation: NONE, Method: PREINCUBATION) is reported as “inactive; negative”, the mutagenic call (Test System: AMES SALMONELLA TYPHIMURIUM, Strain/Indicator: RSJ100, Metabolic Activation: RAT LIVER S-9, Method: PREINCUBATION) is reported as “inactive; negative” and the mutagenic call (Test System: AMES SALMONELLA TYPHIMURIUM, Strain/Indicator: TA98, Metabolic Activation: NONE, Method: PREINCUBATION) is reported as “inactive; negative”. The mutagenic call (Test System: AMES SALMONELLA TYPHIMURIUM, Strain/Indicator: TA98, Metabolic Activation: NONE, Method: STANDARD PLATE) was “active; positive”, the mutagenic call (Test System: AMES SALMONELLA TYPHIMURIUM, Strain/Indicator: TA98, Metabolic Activation: RAT LIVER S-9, Method: PREINCUBATION) was “inactive; negative” and the mutagenic call (Test System: AMES SALMONELLA TYPHIMURIUM, Strain/Indicator: TA98, Metabolic Activation: RAT, LIVER, S-9, AROCLOR 1254, Method: STANDARD PLATE) was “active; positive”. For the same compound, the mutagenic call (Test System: AMES SALMONELLA TYPHIMURIUM, Strain/Indicator: TA100, Metabolic Activation: NONE, Method: FLUCTUATION TEST) was “inactive; negative”, the mutagenic call (Test System: AMES SALMONELLA TYPHIMURIUM, Strain/Indicator: TA100, Metabolic Activation: NONE, Method: PREINCUBATION) was “inactive; negative” and the mutagenic call (Test System: AMES SALMONELLA TYPHIMURIUM, Strain/Indicator: TA100, Metabolic Activation: NONE, Method: STANDARD PLATE) was “active; positive”. For the same compound, the mutagenic call (Test System: AMES SALMONELLA TYPHIMURIUM, Strain/Indicator: TA100, Metabolic Activation: RAT LIVER S-9, Method: PREINCUBATION) was “inactive; negative”, the mutagenic call (Test System: AMES SALMONELLA TYPHIMURIUM, Strain/Indicator: TA100, Metabolic Activation: RAT, LIVER, S-9, AROCLOR 1254, Method: FLUCTUATION TEST) was “inactive; negative” and the mutagenic call (Test System: AMES SALMONELLA TYPHIMURIUM, Strain/Indicator: TA100, Metabolic Activation: RAT, LIVER, S-9, AROCLOR 1254, Method: STANDARD PLATE) was “active; positive”. The mutagenic call (Test System: AMES SALMONELLA TYPHIMURIUM, Strain/Indicator: TA1535 (GST-), Metabolic Activation: NONE, Method: STANDARD PLATE) was “inactive; negative”, the mutagenic call (Test System: AMES SALMONELLA TYPHIMURIUM, Strain/Indicator: TA1535, Metabolic Activation: RAT, LIVER, S-9, AROCLOR 1254, Method: STANDARD PLATE) was “active; positive” and the mutagenic call (Test System: AMES SALMONELLA TYPHIMURIUM, Strain/Indicator: TA1537, Metabolic Activation: NONE, Method: STANDARD PLATE) was “active; positive”. For the same compound, the mutagenic call (Test System: AMES SALMONELLA TYPHIMURIUM, Strain/Indicator: TA1537, Metabolic Activation: RAT, LIVER, S-9, AROCLOR 1254, Method: STANDARD PLATE) was “active; positive”, the mutagenic call (Test System: Ames Salmonella typhimurium, Strain/Indicator: TA98, Metabolic Activation: None, Method: Gas exposure method) was “inactive; negative” and the mutagenic call (Test System: Ames Salmonella typhimurium, Strain/Indicator: TA98, Metabolic Activation: Rat, Liver, S9, Sodium phenobarbital and 5,6-benzoflavone (10%), Method: Gas exposure method) was “inactive; negative”. For the same compound, the mutagenic call (Test System: Ames Salmonella typhimurium, Strain/Indicator: TA100, Metabolic Activation: None, Method: Gas exposure method) was “inactive; negative”, the mutagenic call (Test System: Ames Salmonella typhimurium, Strain/Indicator: TA100, Metabolic Activation: Rat, Liver, S9, Sodium phenobarbital and 5,6-benzoflavone (10%), Method: Gas exposure method) was “inactive; negative” and the mutagenic call (Test System: Ames Salmonella typhimurium, Strain/Indicator: TA1535, Metabolic Activation: None, Method: Gas exposure method) was “inactive; negative”. For the same compound, the mutagenic call (Test System: Ames Salmonella typhimurium, Strain/Indicator: TA1535, Metabolic Activation: Rat, Liver, S9, Sodium phenobarbital and 5,6-benzoflavone (10%), Method: Gas exposure method) was “inactive; negative”, the mutagenic call (Test System: Ames Salmonella typhimurium, Strain/Indicator: TA1537, Metabolic Activation: None, Method: Gas exposure method) was “inactive; negative” and the mutagenic call (Test System: Ames Salmonella typhimurium, Strain/Indicator: TA1537, Metabolic Activation: Rat, Liver, S9, Sodium phenobarbital and 5,6-benzoflavone (10%), Method: Gas exposure method) was “inactive; negative”. The mutagenic call (Test System: CHINESE HAMSTER V-79, Strain/Indicator: V-79/8-AZAGUANINE, Metabolic Activation: NONE, Method: SUSPENSION/PLATE) was “active; positive”, the mutagenic call (Test System: CHINESE HAMSTER V-79, Strain/Indicator: V-79/OUABAIN, Metabolic Activation: NONE, Method: SUSPENSION/PLATE) was “inactive; negative” and the mutagenic call (Test System: E. coli, Strain/Indicator: WP2/pKM101, Metabolic Activation: None, Method: Gas exposure method) was “inactive; negative (two experimental trials)”. For the same compound, the mutagenic call (Test System: E. coli, Strain/Indicator: WP2/pKM101, Metabolic Activation: Rat, Liver, S9, Sodium phenobarbital and 5,6-benzoflavone (10%) with glutathione, Method: Gas exposure method) was “inactive; negative (two experimental trials)”, the mutagenic call (Test System: E. coli, Strain/Indicator: WP2/pKM101, Metabolic Activation: Rat, Liver, S9, Sodium phenobarbital and 5,6-benzoflavone (10%) without glutathione, Method: Gas exposure method) was “inactive; negative (two experimental trials)” and the mutagenic call (Test System: E. coli, Strain/Indicator: WP2uvrA/pKM101, Metabolic Activation: None, Method: Gas exposure method) was “inactive; negative”. The mutagenic call (Test System: E. coli, Strain/Indicator: WP2uvrA/pKM101, Metabolic Activation: Rat, Liver, S9, Sodium phenobarbital and 5,6-benzoflavone (10%), Method: Gas exposure method) was “inactive; negative”, the mutagenic call (Test System: E.COLI, Strain/Indicator: WP2UVRA/PKM101, Metabolic Activation: NONE, Method: GAS EXPOSURE) was “inactive; negative” and the mutagenic call (Test System: E.COLI, Strain/Indicator: WP2UVRA/PKM101, Metabolic Activation: RAT LIVER S-9, PHENOBARBITOL AND 5,6-BENZOFLAVONE, GLUTATHIONE-SUPPLEMENTED, Method: GAS EXPOSURE) was “active; positive”. The mutagenic call (Test System: E.COLI, Strain/Indicator: WP2UVRA/PKM101, Metabolic Activation: RAT LIVER S-9, PHENOBARBITOL AND 5,6-BENZOFLAVONE, Method: GAS EXPOSURE) was “inactive; negative”, the mutagenic call (Test System: MOUSE LYMPHOMA, Strain/Indicator: L5178Y (TK+/TK-), Metabolic Activation: NONE, Method: SUSPENSION/PLATE) was “inactive; negative” and the mutagenic call (Test System: MOUSE LYMPHOMA, Strain/Indicator: L5178Y (TK+/TK-), Metabolic Activation: RAT, LIVER, S-9, AROCLOR 1254, Method: SUSPENSION/PLATE) was “active; positive”. The mutagenic call (Test System: UDS MOUSE HEPATOCYTES, Strain/Indicator: THY INCORP, Metabolic Activation: NONE, Method: AUTORADIOGRAPHY) was “inactive; negative”.

With `C/C=C(/C)C(=O)O[C@@H]1CCN2CC=C(CO)[C@H]12` the mutagenic call (Test System: AMES SALMONELLA TYPHIMURIUM, Strain/Indicator: TA100, Metabolic Activation: RAT, LIVER, S-9, SODIUM PHENOBARBITAL AND BETA-NAPHTHOFLAVONE, Method: PREINCUBATION) was “inactive; negative”.

Reference: PubChem BioAssay AID1259407 (Chemical Carcinogenesis Research Information System (CCRIS), 2018)
